In US9796719B2, “Compounds and pharmaceutical compositions thereof for the treatment of inflammatory disorders” (GALAPAGOS NV, priority 2013, dated 2017):

Columns and labels:
Assay type in all cases: biochemical
hENPP2 [1] = biological target: T1, hENPP2 (UniProtKB/SwissProt Sequence ref Q13822) (Homo sapiens (Human), UniProt Q13822); experiment: LPC hENPP2 assay (choline release, LPC as substrate)
Outline: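 Choline released from LPC by ENPP2 is quantified after stopping with stop-developer containing 0.6 U/mL choline oxidase, 0.6 U/mL peroxidase, 1.8 mM TOOS, 1.2 mM amino-antipyrine and 20 mM EGTA. Quinoneimine dye read at 555 nm after 30 min at room temperature.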

LPA 18:2 = experiment: Rat whole blood (plasma) LPA assay
Protocol: Whole blood is collected from rats or mouse by exsanguinations on sodium heparin tube, then after centrifugation at 3000 rpm for 15 min at 4° C., plasma is stored at −80° C. Compounds are diluted in DMSO in concentration dependent manner then 0.5 μL are dispensed into 96-wells plate placed in ice. Plasma is defrosted on ice then 49.5 μL of plasma are added into the well containing 0.5 μL of compound (1% DMSO final). Plates are covered with a lid in polypropylene and incubated at +37° C., 5% CO2, for 2 h under gentle shaking (except controls which are stored at −20° C.).
At the end of the incubation, controls are defrosted in ice and transferred in the incubated plates for LC-MS/MS analysis with a non GLP-validated method. For the analysis, plasma proteins from a 10 μL incubated plates are precipitated with an excess of methanol containing the internal standard, LPA 17:0. After centrifugation, the corresponding supernatant is injected on a C18 column. Analytes are eluted out of the column under isocratic conditions. An API5500 QTRAP mass spectrometer (ABSciex™) is used for the detection of LPA 18:2. No calibration curve is prepared for LPA 18:2, however relative quantities are evaluated based on the peak area.

hENPP2 [2] = biological target: T1, hENPP2; experiment: FS3 hENPP2 assay (fluorogenic substrate FS-3); conditions: hENPP2, FS-3 as substrate
Outline: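 Compound dilutions (1/5 steps, top concentration as added 20 μM) were preincubated 30 min at room temperature with hENPP2 (0.4 or 0.64 μg/mL final) in pH 8.0 Tris buffer containing NaCl, KCl, MgCl2, CaCl2 and 0.1% fatty-acid-free BSA. FS-3 (0.75 μM as added) was then hydrolysed for 30 min at 30 °C, and fluorescence was read at 485/520 nm.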

IC50 (hENPP2 [1]) [nM]	IC50 (LPA 18:2) [nM]	IC50 (hENPP2 [2]) [nM]	SMILES
500 to 1000	> 1000		CCc1nc2ccc(N3CCC4(CNC(=O)O4)C3)nn2c1N(C)c1nc(-c2ccc(F)cc2)cs1 (stereo not shown) [Cpd 118, 7-(2-ethyl-3-((4-(4-fluorophenyl)thiazol-2-yl)(methyl)amino)imidazo[1,2-b]pyridazin-6-yl)-1-oxa-3,7-diazaspiro[4.4] nonan-2-one]
100 to 500	0.01 to 100	0.01 to 25	CN(c1nc(-c2ccc(F)cc2)cs1)c1c(CCC#N)nc2ccc(C3CCN(S(C)(=O)=O)CC3)nn12 [Compound 198, 3-(3-((4-(4-fluorophenyl)thiazol-2-yl)(methyl)amino)-6-(1-(methylsulfonyl)piperidin-4-yl)imidazo[1,2-b]pyridazin-2-yl)propanenitrile]
0.01 to 100	100 to 500	0.01 to 25	CCc1nc2ccc(C3CCN(CC(=O)N4CC(O)C4)CC3)nn2c1N(C)c1cccc(-c2ccc(F)cc2C#N)n1 [Cpd 213, 2-(6-((2-ethyl-6-(1-(2-(3-hydroxyazetidin-1-yl)-2-oxoethyl)piperidin-4-yl)imidazo[1,2-b]pyridazin-3-yl)(methyl)amino)pyridin-2-yl)-5-fluorobenzonitrile]
100 to 500	100 to 500	0.01 to 25	CCc1nc2ccc(C3CCN(CC(=O)N4CC(O)C4)CC3)nn2c1N(C)c1ccc(C#N)c(-c2ccc(F)cc2)n1 [Cpd 218, 6-((2-ethyl-6-(1-(2-(3-hydroxyazetidin-1-yl)-2-oxoethyl)piperidin-4-yl)imidazo[1,2-b]pyridazin-3-yl)(methyl)amino)-2-(4-fluorophenyl) nicotinonitrile]
100 to 500	100 to 500	0.01 to 25	CCc1nc2cnc(C3CCN(CC(=O)N4CC(O)C4)CC3)cn2c1N(C)c1nc(-c2ccc(F)cc2)c(C#N)s1 [Cpd 23, 2-((2-ethyl-6-(1-(2-(3-hydroxyazetidin-1-yl)-2-oxoethyl)piperidin-4-yl)imidazo[1,2-a]pyrazin-3-yl)(methyl)amino)-4-(4-fluorophenyl) thiazole-5-carbonitrile]
100 to 500	0.01 to 100	0.01 to 25	CCc1nc2cnc(C3CCN(CC(=O)N4CC[C@H](O)C4)CC3)cn2c1N(C)c1nc(-c2ccc(F)cc2)c(C#N)s1 [Cpd 25, (S)-2-((2-ethyl-6-(1-(2-(3-hydroxypyrrolidin-1-yl)-2-oxoethyl)piperidin-4-yl)imidazo[1,2-a]pyrazin-3-yl)(methyl)amino)-4-(4-fluorophenyl) thiazole-5-carbonitrile]
100 to 500	0.01 to 100	0.01 to 25	CCc1nc2cnc(C3CCN(CC(=O)N4CC[C@@H](O)C4)CC3)cn2c1N(C)c1nc(-c2ccc(F)cc2)c(C#N)s1 [Cpd 24, (R)-2-((2-ethyl-6-(1-(2-(3-hydroxypyrrolidin-1-yl)-2-oxoethyl)piperidin-4-yl)imidazo[1,2-a]pyrazin-3-yl)(methyl)amino)-4-(4-fluorophenyl) thiazole-5-carbonitrile]
100 to 500	100 to 500		CCc1nc2ccc(C3CCN(S(C)(=O)=O)CC3)nn2c1N(C)c1nc(-c2ccc(F)cc2C#N)cs1 [Cpd 205, 2-(2-((2-ethyl-6-(1-(methylsulfonyl)piperidin-4-yl)imidazo[1,2-b]pyridazin-3-yl)(methyl)amino)thiazol-4-yl)-5-fluorobenzonitrile]
100 to 500	> 1000	0.01 to 25	CCc1nc2cnc(N3CCN(CC(=O)N4CCOCC4)CC3)cn2c1N(C)c1nc(-c2ccc(F)cc2)c(C#N)s1 [Cpd 10, 2-((2-ethyl-6-(4-(2-morpholino-2-oxoethyl)piperazin-1-yl)imidazo[l,2-a]pyrazin-3-yl)(methyl)amino)-4-(4-fluorophenyl) thiazole-5-carbonitrile]
> 1000	> 1000	> 100	CCc1nc2cnc(N3CCN(CC(=O)N4CC(O)C4)CC3)cn2c1N(C)c1ncc(C#N)c(-c2ccc(F)cc2)n1 [Cpd 19, 2-((2-ethyl-6-(4-(2-(3-hydroxyazetidin-1-yl)-2-oxoethyl)piperazin-1-yl)imidazo[1,2-a]pyrazin-3-yl)(methyl)amino)-4-(4-fluorophenyl) pyrimidine-5-carbonitrile]
500 to 1000	100 to 500		CCc1nc2ccc(C3CCN(S(C)(=O)=O)CC3)nn2c1N(C)c1nc(-c2ccc(F)cc2C#N)c(CO)s1 [Cpd 206, 2-(2-((2-ethyl-6-(1-(methylsulfonyl)piperidin-4-yl)imidazo[1,2-b]pyridazin-3-yl)(methyl)amino)-5-(hydroxymethyl)thiazol-4-yl)-5-fluorobenzonitrile]
100 to 500	100 to 500	0.01 to 25	CCc1nc2ccc(N3CCN(CC4CNC(=O)O4)CC3)nn2c1N(C)c1nc(-c2ccc(F)cc2)cs1 (stereo not shown) [Cpd 40, 5-((4-(2-ethyl-3-((4-(4-fluorophenyl)thiazol-2-yl)(methyl)amino)imidazo[1,2-b]pyridazin-6-yl)piperazin-1-yl)methyl) oxazolidin-2-one]
0.01 to 100	0.01 to 100		CCc1nc2ccc(N3CCC(N4CCOCC4)C3)nn2c1N(C)c1nc(-c2ccc(F)cc2)c(C#N)s1 (stereo not shown) [Cpd 149, 2-((2-ethyl-6-(3-morpholino-pvrrolidin-1-yl)imidazo[1,2-b]pyridazin-3-yl)(methyl)amino)-4-(4-fluorophenyl) thiazole-5-carbonitrile]
> 1000		0.01 to 25	CCc1nc2ccc(N3CCC(N4CCCCC4)C3)nn2c1N(C)c1nc(-c2ccc(F)cc2)cs1 (stereo not shown) [Cpd 151, N-(2-ethyl-6-(3-(piperidin-1-yl)pyrrolidin-1-yl)imidazo[1,2-b]pyridazin-3-yl)-4-(4-fluorophenyl)-N-methylthiazol-2-amine]
> 1000	> 1000		CCc1nc2cnc(N3CCN(CC(=O)N4CC(O)C4)CC3)cn2c1N(C)c1nc(-c2ccc(F)cc2)cs1 [Cpd 14, 2-(4-(2-ethyl-3-((4-(4-fluorophenyl)thiazol-2-yl)(methyl)amino)imidazo[1,2-a]pyrazin-6-yl)piperazin-1-yl)-1-(3-hydroxyazetidin-1-yl)ethanone]
> 1000		0.01 to 25	CCc1nc2ccc(N3CCN4C(=O)OC[C@@H]4C3)nn2c1N(C)c1nc(-c2ccc(F)cc2)cs1 [Compound 61, (S)-7-(2-ethyl-3-((4-(4-fluorophenyl)thiazol-2-yl)(methyl)amino)imidazo[1,2-b]pyridazin-6-yl)tetrahydro-1H-oxazolo[3,4-a]pyrazin-3 (5H)-one]
100 to 500		0.01 to 25	CCc1nc2ccc(N3CCN(CC(=O)N4CCCC4CO)CC3)nn2c1N(C)c1nc(-c2ccc(F)cc2)cs1 (stereo not shown) [Cpd 29]
500 to 1000		0.01 to 25	CCc1nc2ccc(N3CCN(CCC(N)=O)CC3)nn2c1N(C)c1nc(-c2ccc(F)cc2)cs1 [Compound 52, 3-(4-(2-ethyl-3-((4-(4-fluorophenyl)thiazol-2-yl)(methyl)amino)imidazo[1,2-b]pyridazin-6-yl)piperazin-1-yl)propanamide]
> 1000		0.01 to 25	CCc1nc2ccc(N3CC4CN(S(C)(=O)=O)CC4C3)nn2c1N(C)c1nc(-c2ccc(F)cc2)cs1 (stereo not shown) [Compound 123, N-(2-ethyl-6-(5-(methylsulfonyl)hexahydropyrrolo[3,4-c]pyrrol-2(1H)-yl)imidazo[1,2-b]pyridazin-3-yl)-4-(4-fluorophenyl)-N-methylthiazol-2-amine]
500 to 1000		0.01 to 25	CCc1nc2ccc(N3CC4CN(S(=O)(=O)CCCN(C)C)CC4C3)nn2c1N(C)c1nc(-c2ccc(F)cc2)cs1 (stereo not shown) [Cpd 126, N-(6-(5-(3-(dimethylamino)propylsulfonyl)hexahydropyrrolo [3,4-c]pyrrol-2(1H)-yl)-2-ethylimidazo[1,2-b]pyridazin-3-yl)-4-(4-fluorophenyl)-N-methylthiazol-2-amine]
> 1000		0.01 to 25	CCc1nc2ccc(N3CCC(N)C3)nn2c1N(C)c1nc(-c2ccc(F)cc2)cs1 (stereo not shown) [Cpd 134, N-(6-(3-aminopyrrolidin-1-yl)-2-ethylimidazo[1,2-b]pyridazin-3-yl)-4-(4-fluorophenyl)-N-methylthiazol-2-amine]
100 to 500		0.01 to 25	CCc1nc2ccc(N3CCN(CC(=O)N4CCOCC4)[C@H](CO)C3)nn2c1N(C)c1nc(-c2ccc(F)cc2)cs1 [Cpd 65, (S)-2-(4-(2-ethyl-3-((4-(4-fluorophenyl)thiazol-2-yl)(methyl)amino)imidazo[1,2-b]pyridazin-6-yl)-2-(hydroxymethyl)piperazin-1-yl)-1-morpholinoethanone]
> 1000		25 to 50	CCc1nc2ccc(N3CCS(=O)(=O)CC3)nn2c1N(C)c1nc(-c2ccc(F)cc2)cs1 [Compound 79, [6-(1,1-Dioxothiomorpholin-4-yl)-2-ethyl-imidazo[1,2-b]pyridazin-3-yl]-[4-(4-fluoro-phenyl)-thiazol-2-yl]-methyl-amine]
